{"source": "patent EP0249301A1", "about": "“Pyrido[2,3-b]indoles” (BEECHAM GROUP PLC, priority 1986, dated 1987)", "tested_on": "Rats", "assay": "Geller-Seifter procedure (conflict test for anxiolytic properties)", "format": "in vivo", "settings": "Rattus norvegicus, 0.5 h; dose 50 mg/kg po, 30 min before testing; percentage increase in square root of total lever presses in the FR5 'conflict' session; read-out: increase in responding in the 'conflict' session", "protocol": "Potential anxiolytic properties have been evaluated using the Geller-Seifter procedure based on that originally described by Geller and Seifter, (1960) Psychopharmacologia, 1, 482-492.\nRats are trained on a variable interval 30 sec schedule (VI30) to press a lever in order to obtain food reward. The 5 min sessions of the V130 schedule alternate with 2-5 min of a schedule (FR5) in which every 5th lever press is followed by presentation of a food pellet paired with a 0.5 sec mild footshock. The total study lasts approximately 30 mins. Rats typically respond with high rates of lever pressing under the VI30 schedule and low response rats under the Fx5 'conflict' session. Anxiolytic drugs increase the suppressed response rates of rats in 'conflict' session.\nDrugs are administered intraperitoneally or orally to groups of 3-8 rats 30 min before testing.\nThe results are expressed as the percentage increase in square root of the total number of lever presses in the FR5 'conflict' session. Square root transformation is necessary to normalise the data for statistical analysis using parametric methods."}
{"compound": "CCCOC(=O)c1c(C)nc2c(c1N)c1ccccc1n2C", "note": "[Example 24, 4-Amino-2,9-dimethyl-9H-pyrido[2,3,b]indole-3-carboxylic acid, n-propyl ester]", "values": [{"measurement": "change in vivo at 50 mg/kg", "result": 78, "unit": "%"}]}
{"compound": "COC(=O)c1c(C)nc2[nH]c3ccccc3c2c1N", "note": "[Example 1, 4-Amino-2-methyl-9H-pyrido[2,3-b]indole-3-carboxylic acid, methyl ester]", "values": [{"measurement": "change in vivo at 50 mg/kg", "result": 143, "unit": "%"}]}
{"compound": "C=CCOC(=O)c1c(C)nc2c(c1N)c1ccccc1n2C", "note": "[Example 11, 4-Amino-2,9-dimethyl-9H-pyrido[2,3-b]indole-3-carboxylic acid, 2-propenyl ester]", "values": [{"measurement": "change in vivo at 50 mg/kg", "result": 138, "unit": "%"}]}
{"compound": "CNc1c(C(=O)OC)c(C)nc2c1c1ccccc1n2C", "note": "[Example 8, 2,9-Dimethyl-4-methylamino-9H-pyrido[2,3-b]indole-3-carboxylic acid, methyl ester]", "values": [{"measurement": "change in vivo at 50 mg/kg", "result": 112, "unit": "%"}]}
{"compound": "C#CCOC(=O)c1c(C)nc2c(c1N)c1ccccc1n2C", "note": "[Example 14, 4-Amino-2,9-dimethyl-9H-pyrido[2,3-b]indole-3-carboxy-lie acid, 2-propynyl ester]", "values": [{"measurement": "change in vivo at 50 mg/kg", "result": 102, "unit": "%"}]}
